Measurements from US20260242320A1, “USE OF CANNABIDIOL DERIVATIVE IN PREPARATION OF MEDICAMENT” (priority 2023, published 2026).
Read-outs that look alike come from different tables or passages of the source.

Legend:
[1] = test system: BV-2 cellular viability; assay: Cell viability / cytotoxicity by crystal violet staining; type: cell-based; settings: Mus musculus, BV-2, read-out: Cellular toxicity (IC50 inhibiting BV-2 cellular viability)
Description: 100 μL of culture medium were transferred to a black 96-well plate for later use. Following removal of old culture medium, 100 μL of 4% paraformaldehyde was added for fixation. Fixation was performed for 5 minutes. Paraformaldehyde was then removed, and 100 μL of 0.05% crystal violet was added. The resultant mixture was incubated for 15 minutes, after which time crystal violet was removed and the mixture was slowly rinsed with water three times. Next, 150 μL of ethanol was added, and the mixture was incubated for 15 minutes. After incubation, the absorbance was measured at 540 nm using a spectrophotometer. Viability (%)=100× Fluorescence values of the dosing group/Fluorescence values of the blank group.
Cell viability was determined by crystal violet staining. Briefly, BV-2 cells were treated as indicated in the NO assay. The media was removed, and then 4% paraformaldehyde was added to fix the cells for 5 min. Cells were stained with 100 μL 0.05% crystal violet for 15 min and washed with water 2 times. Next, 150 μL of ethanol was added to each well, and the plate was incubated for 15 min at room temperature. Absorbance at 540 nm was measured using a SYNERGY H1 Microplate Reader.

[2] = test system: LPS-induced proinflammatory factor nitric oxide (NO) in immunocompetent BV-2 cells; assay: NO assay: inhibition of LPS-induced NO overproduction in BV-2 cells; type: cell-based; settings: Mus musculus, read-out: Antineuroinflammatory activity (IC50 inhibiting LPS-induced NO)
Description: BV-2 cells were seeded at a density of 5×10^4 cells per milliliter in 96-well plates. After 24 h incubation, the media was removed and changed to DMEM without FBS and penicillin-streptomycin. LPS (200 ng/mL) and different concentrations of compounds were added. After 24 h treatment, 100 μL of media was transferred to flat black 96-well micro fluor plates, and then, 10 μL of 0.05 mg/mL 2,3-diaminonaphthalene was added and incubated in the dark for 15 min. 5 μL of NaOH (3 M) was subsequently added to each well to quench the reaction. NO inhibition ratio was analyzed by a SYNERGY H1 Microplate Reader (BioTek Instruments, Carlsbad, CA, USA) with excitation at 360 nm and emission at 430 nm. The fluorescence value of the LPS-treated group was set as 100%.

[3] = test system: morphine-treated mice; assay: Morphine-induced behavioral sensitization; type: in vivo; settings: 0.2 mg/kg i.p., mice
Description: Mice were placed into the test chamber (40×40×40 cm^3) for 60 min to habituate the chamber for three consecutive days. […] Locomotor activity was recorded daily for 60 min after the administration of drugs. Next, all the mice were subjected to a 7-day withdrawal period (days 8-14). Subsequently, mice were given morphine (5 mg/kg, i.p.), and locomotor activity was recorded to determine behavioral sensitization.

[4] = test system: LPS-induced IL-1β, TNF-α, IL-6, iNOS, IL-10 mRNA in BV-2 cells; assay: qRT-PCR of proinflammatory and M1/M2 marker mRNAs in LPS-treated BV-2 cells; type: cell-based; settings: BV-2 cells
Description: Total RNA was extracted from cells or mouse brains using the RNeasy Mini Kit. Isolated RNA was reverse-transcribed into cDNA using an RT2 Easy First Strand cDNA Synthesis Kit following the manufacturer's protocols. PCR amplification was conducted using synthetic primers, SYBR Green, and a TOptical Real-Time qPCR Thermal Cycler (Analytik Jena, Thuringia, Germany). The data were analyzed by the […] method, and Rpl711 or Rpl27 was used as an internal control.

[5] = target: T1, CB2 Receptor (Homo sapiens, UniProt P34972); assay: cAMP measurement, forskolin-induced cAMP accumulation, CB2; type: cell-based
T1 construct: expressed in transfected cells; host or cells: GloSensor 22-F HEK293 cells
T1 sequence (P34972 whole entry): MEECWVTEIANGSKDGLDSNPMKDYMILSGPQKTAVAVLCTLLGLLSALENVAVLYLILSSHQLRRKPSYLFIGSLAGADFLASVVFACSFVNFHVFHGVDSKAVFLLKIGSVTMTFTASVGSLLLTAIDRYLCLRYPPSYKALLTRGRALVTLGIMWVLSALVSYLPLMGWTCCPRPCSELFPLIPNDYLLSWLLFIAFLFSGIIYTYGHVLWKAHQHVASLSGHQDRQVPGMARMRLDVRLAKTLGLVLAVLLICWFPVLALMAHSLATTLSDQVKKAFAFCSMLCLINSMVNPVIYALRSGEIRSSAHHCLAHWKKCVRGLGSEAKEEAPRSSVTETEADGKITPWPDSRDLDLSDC
Description: (§1) GloSensor 22-F HEK293 cells were transfected with plasmids encoding different receptors (CB1 and CB2). After 24 h, HEK293 cells were seeded at a density of 5×10^4 cells per well in 96-well plates and incubated for 8 h; then, the medium was removed, and 200 μL of serum-free DMEM medium containing 2% GloSensor cAMP substrate (Promega) was added. After 2 h incubation, the transfected cells were stimulated with different concentrations of ligands together with […]. The luminescence was recorded using a Multimode Plate Reader (En Vision, PerkinElmer).

[6] = Pharmacokinetic profiles in brain and plasma after oral administration; type: in vivo, mice; settings: 10 mg/kg p.o.
Description: Following administration, mice (BALB/c, male, 20-25 g) were sacrificed at 0.5, 1, 2, 3, and 4 h. The blood and brain tissue were collected and extracted with acetonitrile.

[7] = test system: morphine-dependent mice; assay: Naloxone-precipitated morphine withdrawal jumps; type: in vivo; settings: 2 μg/kg, 20 μg/kg, 0.2 mg/kg i.p.
Description: Mice were intraperitoneally injected with an escalating dose of morphine three times daily for 3 days (5, 20, and 40 mg/kg) to induce addiction. On the fourth day, mice were given morphine (40 mg/kg) or vehicle (5 mL/kg). […] The withdrawal was precipitated by naloxone. Each mouse was placed into a transparent plastic box immediately, and the number of jumps was recorded for 15 min.

[8] = Pharmacokinetic profiles in brain and plasma after oral administration; type: in vivo, mice; settings: male, BALB/c, mouse, 10 mg/kg p.o., read-out: B/P ratio
[9] = target: T2, CB1 Receptor (Homo sapiens, UniProt P21554); assay: cAMP measurement, forskolin-induced cAMP accumulation, CB1; type: cell-based
T2 construct: expressed in transfected cells; host or cells: GloSensor 22-F HEK293 cells
T2 sequence (P21554 whole entry): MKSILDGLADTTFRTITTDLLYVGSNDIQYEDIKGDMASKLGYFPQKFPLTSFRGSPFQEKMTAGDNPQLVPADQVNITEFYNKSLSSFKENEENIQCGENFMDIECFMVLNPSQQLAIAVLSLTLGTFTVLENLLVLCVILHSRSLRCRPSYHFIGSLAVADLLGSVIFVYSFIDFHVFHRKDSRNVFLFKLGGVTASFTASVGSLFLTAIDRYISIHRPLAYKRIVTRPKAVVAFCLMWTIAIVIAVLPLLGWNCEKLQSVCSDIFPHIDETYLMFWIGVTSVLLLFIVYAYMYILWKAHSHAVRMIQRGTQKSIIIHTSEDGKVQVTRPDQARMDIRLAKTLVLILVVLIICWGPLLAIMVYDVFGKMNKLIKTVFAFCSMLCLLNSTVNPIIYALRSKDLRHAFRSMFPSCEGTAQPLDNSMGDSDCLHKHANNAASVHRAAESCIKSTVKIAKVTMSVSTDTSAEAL
Description: as §1

C=CCOc1cc(CCCCC)cc(O)c1[C@@H]1C=C(C)CC[C@H]1C(=C)C [Compound 4a, (1′R,2′R)-6-(Allyloxy)-5′-methyl-4-pentyl-2′-(prop-1-en-2-yl)-1′,2′,3′,4′-tetrahydro-[1,1′-biphenyl]-2-ol]
IC50 [1]: 71.5 ± 9.4 µM
IC50 ([2]; BV-2, 24 h): 59.8 ± 15.6 µM

C=C(C)[C@@H]1CCC(C)=C[C@H]1c1c(O)cc(CCCCCCCC)cc1O [Compound 12g, (1′R,2′R)-5′-Methyl-4-octyl-2′-(prop-1-en-2-yl)-1′,2′,3′,4′-tetra-hydro-[1,1′-biphenyl]-2,6-diol]
IC50 [1]: 26.2 ± 5.2 µM
IC50 ([2]; BV-2, 24 h): 174 ± 33 µM

C=C(C)[C@@H]1CCC(C)=C[C@H]1c1c(O)cc(CC)cc1O [Compound 12a, (1′R,2′R)-4-Ethyl-5′-methyl-2′-(prop-1-en-2-yl)-1′,2′,3′,4′-tetra-hydro-[1,1′-biphenyl]-2,6-diol]
IC50 [1]: 22.6 ± 1.6 µM
IC50 ([2]; BV-2, 24 h): 2.5 ± 0.3 µM

C=C(C)[C@@H]1CCC(C)=C[C@H]1c1c(OCCC)cc(CCCCC)cc1OCCC [Compound 3b, (1R,2R)-5-Meth-yl-4′-pentyl-2-(prop-1-en-2-yl)-2′,6′-dipropoxy-1,2,3,4-tetrahydro-1,1′-biphenyl]
IC50 [1]: > 200 µM
IC50 ([2]; BV-2, 24 h): > 200 µM

C=C(C)[C@@H]1CCC(C)=C[C@H]1c1c(O)cc(CCC)cc1O [Compound 12b, (1′R,2′R)-5′-Methyl-2′-(prop-1-en-2-yl)-4-propyl-1′,2′,3′,4′-tetra-hydro-[1,1′-biphenyl]-2,6-diol, reference compound]
IC50 [1]: 18.3 ± 4.4 µM
IC50 ([2]; BV-2, 24 h): 5.3 ± 2.9 µM

C=C(C)[C@@H]1CCC(C)=C[C@H]1c1c(O)cc(CCCCCCCCCCCC)cc1O [Compound 12h, (1′R,2′R)-4-Dodecyl-5′-methyl-2′-(prop-1-en-2-yl)-1′,2′,3′,4′-tet-rahydro-[1,1′-biphenyl]-2,6-diol]
IC50 [1]: > 200 µM
IC50 ([2]; BV-2, 24 h): > 200 µM

C=C(C)[C@@H]1CCC(C)=C[C@H]1c1c(O)cc(CCCCC)cc1OCCC [Compound 3a, (1′R,2′R)-5′-Methyl-4-pentyl-2′-(prop-1-en-2-yl)-6-propoxy-1′,2′,3′,4′-tetrahydro-[1,1′-biphenyl]-2-ol]
IC50 [1]: > 200 µM
IC50 ([2]; BV-2, 24 h): > 200 µM

C=C(C)[C@@H]1CCC(C)=C[C@H]1c1c(OCC)cc(CCCCC)cc1OCC [Compound 2b, (1R,2R)-2′,6′-Diethoxy-5-methyl-4′-pentyl-2-(prop-1-en-2-yl)-1,2,3,4-tetrahydro-1,1′-biphenyl]
IC50 [1]: > 200 µM
IC50 ([2]; BV-2, 24 h): > 200 µM

C=C(C)[C@@H]1CCC(C)=C[C@H]1c1c(O)cc(C(C)n2ccnc2)cc1O (stereo partly drawn) [Compound 19c, (1′R,2′R)-4-(1-(1H-Imidazole-1-yl)ethyl)-5′-methyl-2′-(prop-1-en-2-yl)-1′,2′,3′,4′-tetrahydro-[1,1′-biphenyl]-2,6-diol]
IC50 [1]: 32.6 ± 3.2 µM
IC50 ([2]; BV-2, 24 h): 4.4 ± 0.5 µM

C=C(C)[C@@H]1CCC(C)=C[C@H]1c1c(OC)cc(CCCCC)cc1OC [Compound 1b, (1R,2R)-2′,6′-Dimethoxy-5-methyl-4′-pentyl-2-(prop-1-en-2-yl)-1,2,3,4-tetrahydro-1,1′-biphenyl]
IC50 [1]: > 200 µM
IC50 ([2]; BV-2, 24 h): > 200 µM

C=C(C)[C@@H]1CCC(C)=C[C@H]1c1c(O)cc(CCCC)cc1O [Compound 12c]
IC50 [1]: 11.1 ± 2.8 µM
IC50 ([2]; BV-2, 24 h): 5 ± 3.5 µM

C=C(C)[C@@H]1CCC(C)=C[C@H]1c1c(O)cc(CCCCC)cc1O [CBD, (1′R,2′R)-5′-Methyl-4-pentyl-2′-(prop-1-en-2-yl)-1′,2′,3′,4′-tetra-hydro-[1,1′-biphenyl]-2,6-diol, reference compound]
development of morphine-induced behavioral sensitization (induction period) [3]: not obvious
LPS-induced overexpression of IL-1β mRNA [4]: inhibited IL-1β overexpression only at 10 μM
LPS-induced overexpression of IL-6 mRNA [4]: failed to inhibit
LPS-induced overexpression of TNF-α mRNA [4]: failed to inhibit
LPS-induced IL-6 mRNA expression at 10 μM ([4]; 10 μM): augmented
CB2 Receptor ΔEmax ([5]; HEK293 transfected with CB2, forskolin-induced cAMP): 30.2 ± 0.9%
CB2 receptor activity ([5]; cAMP assay): slight CB1/CB2 receptor activity
AUC0→t ([6]; brain, mice): 66.7 ng·h/g
AUC0→∞ ([6]; brain, mice): 85.0 ng·h/g
MRT ([6]; brain, mice): 42 min
Tmax ([6]; brain, mice): 30 min
t1/2 ([6]; brain, mice): 30 min
Kp ([6]; male, BALB/c, mouse, brain / plasma, oral, read-out: B/P ratios within the first 3 h after administration): < 1
Kp at 0.5 h ([6]; male, BALB/c, mouse, brain / plasma, po, 0.5 h, read-out: B/P ratio): 0.93 ± 0.176
Kp at 1 h ([6]; male, BALB/c, mouse, brain / plasma, po, 1 h, read-out: B/P ratio): 0.839 ± 0.144
naloxone-precipitated withdrawal jumps [7]: failed to significantly alleviate
Kp at 0.083 h ([8]; 0.083 h): 0.864 ± 0.227
Kp at 0.25 h ([8]; 0.25 h): 0.358 ± 0.106
CB1 Receptor ΔEmax ([9]; HEK293 transfected with CB1, forskolin-induced cAMP): 13.3 ± 0.1%
CB1 receptor activity ([9]; cAMP assay): slight CB1/CB2 receptor activity
IC50 [1]: 8.5 ± 0.9 µM
IC50 ([2]; BV-2 cells, LPS 200 ng/mL, 24 h): 12.3 ± 3.1 µM

C=C(C)[C@@H]1CCC(C)=C[C@H]1c1c(O)cc(CCCCCCC)cc1O [Compound 12f, (1′R,2′R)-4-Heptyl-5′-methyl-2′-(prop-1-en-2-yl)-1′,2′,3′,4′-tetra-hydro-[1,1′-biphenyl]-2,6-diol]
IC50 [1]: 14.1 ± 0.7 µM
IC50 ([2]; BV-2, 24 h): 42 ± 9.3 µM

C=C(C)[C@@H]1CCC(C)=C[C@H]1c1c(O)cc(CCCCCC)cc1O [Compound 12e, (1′R,2′R)-4-Hexyl-5′-methyl-2′-(prop-1-en-2-yl)-1′,2′,3′,4′-tetra-hydro-[1,1′-biphenyl]-2,6-diol]
IC50 [1]: 19 ± 0.5 µM
IC50 ([2]; BV-2, 24 h): 2.1 ± 0.4 µM

C=C(C)[C@@H]1CCC(C)=C[C@H]1c1c(O)cc(CCCCC)cc1OCC [Compound 2a, (1′ R,2′R)-6-Ethoxy-5′-methyl-4-pentyl-2′-(prop-1-en-2-yl)-1′,2′,3′,4′-tetrahydro-[1,1′-biphenyl]-2-ol]
IC50 [1]: 176 ± 7.4 µM
IC50 ([2]; BV-2, 24 h): 167 ± 16.9 µM

C#CCOc1cc(CCCCC)cc(O)c1[C@@H]1C=C(C)CC[C@H]1C(=C)C [Compound 5a, (1′R,2′R)-5′-Methyl-4-pentyl-2′-(prop-1-en-2-yl)-6-(prop-2-yn-1-yloxy)-1′,2′,3′,4′-tetrahydro-[1,1′-biphenyl]-2-ol]
IC50 [1]: 65 ± 7.9 µM
IC50 ([2]; BV-2, 24 h): 99.6 ± 16.3 µM

C=CCOc1cc(CCCCC)cc(OCC=C)c1[C@@H]1C=C(C)CC[C@H]1C(=C)C [Compound 4b, (1R,2R)-2′,6′-Bis(allyloxy)-5-methyl-4′-pentyl-2-(prop-1-en-2-yl)-1,2,3,4-tetrahy-dro-1,1′-biphenyl]
IC50 [1]: > 200 µM
IC50 ([2]; BV-2, 24 h): > 200 µM

C#CCOc1cc(CCCCC)cc(OCC#C)c1[C@@H]1C=C(C)CC[C@H]1C(=C)C [Compound 5b, (1R,2R)-5-Methyl-4′-pentyl-2-(prop-1-en-2-yl)-2′,6′-bis(prop-2-yn-1-yloxy)-1,2,3,4-tetrahydro-1,1′-biphenyl]
IC50 [1]: > 200 µM
IC50 ([2]; BV-2, 24 h): > 200 µM
